Data set [1] relates to Liver. The experiment in a line: Apparent distribution ratio of the compound in healthy Wistar rat perfused liver at 4 mM after 10 mins. In kind it is ADME, tissue-based. The settings on record: 4000 µM.
Data set [2] relates to Liver. As to the kind of experiment: Apparent distribution ratio of the compound in perfused liver of high-fat emulsion-induced nonalcoholic steatohepatitis Wistar rat at 4 mM after 10 mins. In kind it is ADME, tissue-based. The settings on record: 4000 µM.
The nature of data set [3]: Extraction ratio of the compound in perfused liver of high-fat emulsion-induced nonalcoholic steatohepatitis Wistar rat at 4 mM after 10 mins. In kind it is ADME, tissue-based. The settings on record: read-out: ERH.
Data set [4] is described as follows: Dissociation constant, pKa of the compound. In kind it is physicochemical.
Data set [5] relates to Liver. As to the kind of experiment: Mean transit time of the compound in perfused liver of high-fat emulsion-induced nonalcoholic steatohepatitis Wistar rat at 4 mM after 10 mins. In kind it is ADME, tissue-based. The settings on record: 4000 µM.
The nature of data set [6]: Extraction ratio of the compound in healthy Wistar rat perfused liver at 4 mM after 10 mins. In kind it is ADME, tissue-based. The settings on record: read-out: ERH.
The nature of data set [7]: Octanol-water apparent partition coefficient, logD of the compound at pH 7.4. In kind it is physicochemical.
For data set [8], the system named is Liver. The experiment in a line: Mean transit time of the compound in healthy Wistar rat perfused liver at 4 mM after 10 mins. In kind it is ADME, tissue-based. The settings on record: 4000 µM.
Data set [9] relates to Liver. The experiment in a line: Apparent distribution ratio of the compound in perfused liver of high-fat emulsion-induced nonalcoholic steatohepatitis Wistar rat at 6 mM after 10 mins. In kind it is ADME, tissue-based. The note with it: 6000 µM.
The subject of data set [10] is Liver. As to the kind of experiment: Apparent distribution ratio of the compound in healthy Wistar rat perfused liver at 6 mM after 10 mins. In kind it is ADME, tissue-based. The note with it: 6000 µM.
The nature of data set [11]: in vitro. The note with it: Wistar, rat, perfused liver.
Description: Extraction ratio of the compound in perfused liver of high-fat emulsion-induced nonalcoholic steatohepatitis Wistar rat at 6 mM after 10 mins
Data set [12] is described as follows: in vitro. The note with it: Wistar, rat, perfused liver. This is another data set of the same source.
Description: Extraction ratio of the compound in healthy Wistar rat perfused liver at 6 mM after 10 mins
Data set [13] deals with Liver. As to the kind of experiment: Drug distribution in healthy Wistar rat perfused liver assessed as equilibrium amount ratio charactering fast binding process at 6 mM after 10 mins. In kind it is ADME, tissue-based. The note with it: in vivo, 6000 µM.
Data set [14] deals with Liver. The experiment in a line: Mean transit time of the compound in healthy Wistar rat perfused liver at 6 mM after 10 mins. In kind it is ADME, tissue-based. The settings on record: 6000 µM.
The test system of data set [15] is Liver. As to the kind of experiment: Drug distribution in perfused liver of high-fat emulsion-induced nonalcoholic steatohepatitis Wistar rat assessed as equilibrium amount ratio charactering fast binding process at 6 mM after 10 mins. In kind it is ADME, tissue-based. The settings on record: in vivo, 6000 µM.
Data set [16] deals with Liver. The experiment in a line: Mean transit time of the compound in perfused liver of high-fat emulsion-induced nonalcoholic steatohepatitis Wistar rat at 6 mM after 10 mins. In kind it is ADME, tissue-based. The settings on record: 6000 µM.
Data set [17] relates to Liver. As to the kind of experiment: Drug distribution in perfused liver of high-fat emulsion-induced nonalcoholic steatohepatitis Wistar rat assessed as equilibrium amount ratio charactering slow binding process at 6 mM after 10 mins. In kind it is ADME, tissue-based. The note with it: in vivo, 6000 µM.
Data set [18] deals with Liver. The experiment in a line: Drug distribution in healthy Wistar rat perfused liver assessed as equilibrium amount ratio charactering slow binding process at 6 mM after 10 mins. In kind it is ADME, tissue-based. The note with it: in vivo, 6000 µM.
Data set [19] concerns Liver. The experiment in a line: Mean transit time of the compound in healthy Wistar rat perfused liver at 3 mM after 10 mins. In kind it is ADME, tissue-based. The settings on record: 3000 µM.
Data set [20] deals with Liver. As to the kind of experiment: Mean transit time of the compound in perfused liver of high-fat emulsion-induced nonalcoholic steatohepatitis Wistar rat at 3 mM after 10 mins. In kind it is ADME, tissue-based. The settings on record: 3000 µM.
The test system of data set [21] is Liver. The experiment in a line: Drug distribution in healthy Wistar rat perfused liver assessed as equilibrium amount ratio charactering slow binding process at 3 mM after 10 mins. The settings on record: in vivo, 3000 µM. In kind it is ADME, tissue-based.
The subject of data set [22] is Liver. As to the kind of experiment: Apparent distribution ratio of the compound in perfused liver of high-fat emulsion-induced nonalcoholic steatohepatitis Wistar rat at 3 mM after 10 mins. In kind it is ADME, tissue-based. The note with it: 3000 µM.
Data set [23] has as its system Liver. As to the kind of experiment: Drug distribution in healthy Wistar rat perfused liver assessed as equilibrium amount ratio charactering fast binding process at 8 mM after 10 mins. In kind it is ADME, tissue-based. The note with it: in vivo, 8000 µM.
In data set [24] the test system is Liver. As to the kind of experiment: Apparent distribution ratio of the compound in healthy Wistar rat perfused liver at 8 mM after 10 mins. The settings on record: 8000 µM. In kind it is ADME, tissue-based.
The test system of data set [25] is Liver. The experiment in a line: Drug distribution in healthy Wistar rat perfused liver assessed as equilibrium amount ratio charactering slow binding process at 8 mM after 10 mins. In kind it is ADME, tissue-based. The settings on record: in vivo, 8000 µM.
In data set [26] the test system is Liver. As to the kind of experiment: Mean transit time of the compound in perfused liver of high-fat emulsion-induced nonalcoholic steatohepatitis Wistar rat at 8 mM after 10 mins. In kind it is ADME, tissue-based. The settings on record: 8000 µM.
Data set [27] concerns Liver. The experiment in a line: Mean transit time of the compound in healthy Wistar rat perfused liver at 8 mM after 10 mins. The settings on record: 8000 µM. In kind it is ADME, tissue-based.
In data set [28] the test system is Liver. As to the kind of experiment: Drug distribution in perfused liver of high-fat emulsion-induced nonalcoholic steatohepatitis Wistar rat assessed as equilibrium amount ratio charactering slow binding process at 8 mM after 10 mins. The settings on record: in vivo, 8000 µM. In kind it is ADME, tissue-based.
The subject of data set [29] is Liver. As to the kind of experiment: Drug distribution in perfused liver of high-fat emulsion-induced nonalcoholic steatohepatitis Wistar rat assessed as equilibrium amount ratio charactering fast binding process at 8 mM after 10 mins. In kind it is ADME, tissue-based. The note with it: in vivo, 8000 µM.
Data set [30] has as its system Liver. The experiment in a line: Apparent distribution ratio of the compound in perfused liver of high-fat emulsion-induced nonalcoholic steatohepatitis Wistar rat at 8 mM after 10 mins. In kind it is ADME, tissue-based. The settings on record: 8000 µM.

As usually defined, the pKa is the pH at which an ionisable group is half protonated. Lower therefore signals a stronger acid or weaker base.

Take `Cc1cc(=O)n(-c2ccccc2)n1C` [ANTIPYRINE]: the values for the K in data set [1] and in [2] were 2.67 and 4.5, respectively. The hepatic extraction ratio at 10 min, 4000 µM in data set [3] turned out to be 0.08; in data set [6], 0.16. Besides, in data set [4], the pKa turned out to be 1.45. For the same compound, the MTT in data set [5] is given as 64.12 s; in data set [8], 46.46 s. Moreover, the logD in data set [7] (read-out: LogD7.4) stood at 0.33.

Turning to `CC(C)NCC(O)COc1ccc(CC(N)=O)cc1` (stereo unspecified) [ATENOLOL], the K in data set [1] turned out to be 9.9; in [2], 12.51. For the same compound, the MTT in data set [5] is 18.63 s; in [8], 13.12 s.

Regarding `CC(CCc1ccccc1)NCC(O)c1ccc(O)c(C(N)=O)c1` (stereo unspecified) [LABETALOL], the K came out at 10.94 in data set [9]; 6.45 in data set [10]; 1.08 in data set [13]; 1.94 in data set [15]; 11.81 in data set [17]; 6.78 in data set [18]. In addition, the hepatic extraction ratio at 10 min, 6000 µM in data set [11] was 0.79; in data set [12] it was 0.86. Also, the MTT in data set [14] was determined as 29.1 s; in data set [16], 33.98 s. Further, in data set [7], the LogD7.4 came out at 2.69.

Regarding `COCCc1ccc(OCC(O)CNC(C)C)cc1` (stereo unspecified) [METOPROLOL], the MTT in [19] amounted to 60.26 s; in [20], 67.43 s. Besides, the LogD7.4 in data set [7] came out at 1.79. In addition, the K worked out at 2.27 in data set [21] and 11.97 in [22].

On to `CC(C)NCC(O)COc1cccc2ccccc12` (stereo unspecified) [PROPRANOLOL], for which the K in [23] was 1.96; in data set [24] it was 10.76; in data set [25], 13.59; in data set [28], 5.35; in [29] it was 0.38; in [30], 16.31. Besides, the MTT was 70.99 s in [26] and 58.14 s in data set [27].

Values taken from ChEMBL document CHEMBL3526036, “Hepatic pharmacokinetics of cationic drugs in a high-fat emulsion-induced rat model of nonalcoholic steatohepatitis” (Drug Metab Dispos, 2011).
